Measurements from ChEMBL document CHEMBL1153753, “Structure-activity relationships and mechanism of action of antitumor bis 8-hydroxyquinoline substituted benzylamines” (Eur J Med Chem, 2010).
Calls of active or inactive are those of the source. No cut-off for these calls is given here.

Legend:
[1] = Cytotoxicity against human KB3 cells after 72 hrs by MTS assay; type: functional; conditions: KB3, 72 h
[2] = Antiproliferative activity against human U87 cells expressing GFP after 3 days by flash-cytometry; type: functional, U-87MG ATCC; conditions: U-87 MG, 72 h, read-out: ED50 (the source's name)
LoVo = assay: Cytotoxicity against human LoVo cells by MTT assay; type: functional, cell-based
T98G = assay: Cytotoxicity against human T98G cells by MTT assay; type: functional, cell-based
A549 = assay: Cytotoxicity against human A549 cells by MTT assay; type: functional, cell-based
MCF7 = assay: Cytotoxicity against human MCF7 cells by MTT assay; type: functional, cell-based
[3] = Cytotoxicity against human U373 cells by MTT assay; type: functional, cell-based, U-373MG ATCC; conditions: U373 MG
[4] = Cytotoxicity against human Hs683 cells by MTT assay; type: functional, cell-based; conditions: Hs 683
PC-3 = assay: Cytotoxicity against human PC3 cells by MTT assay; type: functional, cell-based
BXPC-3 = assay: Cytotoxicity against human BxPC3 cells by MTT assay; type: functional, cell-based
Nucleic Acid [5] = assay: Binding affinity to calf thymus DNA assessed as DNA alkylation at 2 to 100 uM after 24 hrs; type: nucleic-acid assay; conditions: Bos taurus
[6] = Cytotoxicity against human KB3-1 cells assessed as reduction of glutathione level after 72 hrs by MTT assay; type: functional; conditions: KB 3-1, 72 h
Nucleic Acid [7] = assay: Binding affinity to calf thymus DNA assessed as DNA cleavage at 2 to 100 uM by electrophoresis; type: nucleic-acid assay; conditions: Bos taurus
Nucleic Acid [8] = assay: Binding affinity to calf thymus DNA at 2 to 100 uM by standard spectrometry; type: nucleic-acid assay; conditions: Bos taurus
[9] = Cytotoxicity against human KB3-1 cells assessed as reduction of glutathione level after 72 hrs by MTT assay pretreated with buthionin sulfoximine; type: functional; conditions: KB 3-1
Nucleic Acid [10] = assay: Binding affinity to calf thymus DNA at 2 to 100 uM by EMSA; type: nucleic-acid assay; conditions: Bos taurus

SMILES | CC50 [1] [µM] | EC50 [2] [µM] | IC50 (LoVo) [µM] | IC50 (T98G) [µM] | IC50 (A549) [µM] | IC50 (MCF7) [µM] | IC50 [3] [µM] | IC50 [4] [µM] | IC50 (PC-3) [µM] | IC50 (BXPC-3) [µM] | further results
Oc1ccc(CN(CCN2CCCC2)Cc2ccc(O)c3ncccc23)c2cccnc12 | 1 | 0.2 | – | – | – | – | – | – | – | – | –
Oc1ccc(CN(Cc2ccc(O)c3ncccc23)CC2CCCO2)c2cccnc12 (configuration not stated) | 10 | 5 | – | – | – | – | – | – | – | – | –
COc1ccc(CN(Cc2ccc(C(F)(F)F)cc2)Cc2ccc(O)c3ncccc23)c2cccnc12 | > 10 | – | – | – | – | – | – | – | – | – | –
CC(C)(C)OC(=O)N(Cc1cccc(C(F)(F)F)c1)Cc1ccc(O)c2ncccc12 | 1 | > 10 | – | – | – | – | – | – | – | – | –
O=C(O)C1CCC(CN(Cc2ccc(O)c3ncccc23)Cc2ccc(O)c3ncccc23)CC1 (configuration not stated) | 1.1 | – | 0.422 | 9.76 | 0.661 | 9.46 | 3.73 | 2.86 | 9.94 | 4.34 | –
CC(C)(C)OC(=O)N(Cc1cc(C(F)(F)F)cc(C(F)(F)F)c1)Cc1ccc(O)c2ncccc12 | 1 | – | – | – | – | – | – | – | – | – | –
Oc1ccc(CN(Cc2cccc(C(F)(F)F)c2)Cc2ccc(O)c3ncccc23)c2cccnc12 | 2.2 | 2 | 0.094 | 0.057 | 0.038 | 0.03 | 0.065 | 0.036 | 0.037 | 0.167 | –
Oc1ccc(CN(Cc2ccccc2)Cc2ccccc2)c2cccnc12 | 1 | 5 | – | – | – | – | – | – | – | – | –
Oc1ccc(CN(Cc2ccccc2C(F)(F)F)Cc2ccc(O)c3ncccc23)c2cccnc12 | 0.1 | < 0.2 | 0.093 | 0.21 | 0.046 | 0.088 | 0.078 | 0.064 | 0.179 | 0.274 | –
Oc1ccc(CN(Cc2cccs2)Cc2ccc(O)c3ncccc23)c2cccnc12 | 0.002 | < 0.2 | 0.04 | 0.088 | 0.027 | 0.035 | 0.085 | 0.035 | 0.044 | 0.089 | –
Oc1ccc(CN(Cc2ccc(C(F)(F)F)cc2)Cc2ccc(O)c3ncccc23)c2cccnc12 | 0.001 | < 0.2 | 0.01 | 0.099 | 0.008 | 0.034 | 0.044 | 0.01 | 0.066 | 4.3 | Activity (Nucleic Acid [5]): inactive; CC50 [6]: 0.033 µM; Activity (Nucleic Acid [7]): inactive; Activity (Nucleic Acid [8]): inactive; CC50 [9]: 0.07 µM; Activity (Nucleic Acid [10]): inactive
Oc1ccc(CN(Cc2ccc(O)c3ncccc23)Cc2ccc(O)c3ncccc23)c2cccnc12 | > 10 | > 10 | – | – | – | – | – | – | – | – | –
Cc1ccc(C(=O)NCc2ccc(O)c3ncccc23)cc1 | 1 | 10 | – | – | – | – | – | – | – | – | –
Oc1ccc(CNCc2ccc(C(F)(F)F)cc2)c2cccnc12 | 10 | > 10 | – | – | – | – | – | – | – | – | –
Oc1ccc(CNCc2ccccc2)c2cccnc12 | > 1 | – | – | – | – | – | – | – | – | – | –
Cc1ccc(CNCc2ccc(O)c3ncccc23)cc1 | – | > 10 | – | – | – | – | – | – | – | – | –
Oc1ccc(CNCc2cccc(C(F)(F)F)c2)c2cccnc12 | 0.2 | 0.18 | – | – | – | – | – | – | – | – | –
Oc1ccc(CN(Cc2ccc(OC(F)(F)F)cc2)Cc2ccc(O)c3ncccc23)c2cccnc12 | 0.1 | – | – | – | – | – | – | – | – | – | –
Cn1cccc1CN(Cc1ccc(O)c2ncccc12)Cc1ccc(O)c2ncccc12 | – | 2 | – | – | – | – | – | – | – | – | –
CC(C)(C)OC(=O)N(Cc1ccc(C(F)(F)F)cc1)Cc1ccc(O)c2ncccc12 | 10 | 2 | – | – | – | – | – | – | – | – | –
Oc1ccc(CN(Cc2ccccc2)Cc2ccc(O)c3ncccc23)c2cccnc12 | 0.02 | < 0.5 | 0.091 | 0.249 | 0.544 | 0.097 | 0.357 | 0.076 | 0.258 | 7.44 | –
Oc1ccc(CN(CCc2ccccn2)Cc2ccc(O)c3ncccc23)c2cccnc12 | > 10 | – | – | – | – | – | – | – | – | – | –
Oc1ccc(CN(Cc2cc(C(F)(F)F)cc(C(F)(F)F)c2)Cc2ccc(O)c3ncccc23)c2cccnc12 | 1 | < 0.2 | 0.01 | 0.072 | 0.009 | 0.038 | 0.096 | 0.181 | 0.071 | 0.079 | –
Oc1ccc(CN(Cc2cccc(I)c2)Cc2ccc(O)c3ncccc23)c2cccnc12 | 1 | 2 | 0.393 | 0.446 | 0.35 | 0.374 | 5.59 | 0.479 | 0.394 | 2.59 | –
Oc1ccc(CN(Cc2ccc(C(F)(F)F)cc2)Cc2cccc3ncccc23)c2cccnc12 | 10 | > 10 | – | – | – | – | – | – | – | – | –
